Patent publication US20140121164A1, “PREVENTION OF KIDNEY INJURY OR DISEASE” (University of Florida Research Foundation, priority 2012, published 2014)
“Also recorded” adds a separate entry of the source.

Assays:
subjects = experiment: Evaluation of rate of infusion of AP214 (CS002); type: in vivo, human
Procedure: To establish a suitable rate of infusion of AP214 a set of patient trials were performed.
AP214 isotonic solution single ascending doses (25, 50 and 100 μg/kg) for intravenous infusion administered over 10 minutes, or placebo (saline infusion).
AP214 isotonic solution single doses (100 μg/kg over 1 minute; 100 μg/kg over 30 seconds; 200 μg/kg over 30 seconds) for intravenous infusion.

[1] = tested on: pigs after induction of complete warm ischemia in the kidney; details: 200 μg/kg, 10 ml i.v. bolus during 1 minute, seven doses; cited from earlier work
[2] = tested on: patients undergoing cardiac surgery; experiment: Prevention of AKI by different dosage regimes of AP214 in patients undergoing cardiac surgery (CS005 protocol); type: in vivo, human
Procedure: Each of 12 patients undergoing cardiac surgery (the AP214 group) was dosed with 600 μg/kg AP214: 200 μg/kg at skin incision, 200 μg/kg at cross clamp release, and 200 μg/kg 6-hour after cross clamp release. Each dosage was provided over a period of 10 minutes. The placebo group included 13 patients undergoing cardiac surgery without AP214 infusion.
Objectives • trial objective was to assess the effect of AP214 on • 1) changes in serum creatinine, cystatin-C and carbamade, • 2) on eGFR and • 3) on the development of post-surgical acute kidney injury (AKI) • AKI also assessed (post-hoc analysis) by AKIN and RIFLE
Three different definitions of AKI were tested: • 1) 3 patients in the AP214 group developed AKI, in contrast to 7 patients in the placebo group who developed AKI. AKI is defined as in the CS005 protocol: • An absolute increase in serum creatinine of more than or equal to 26.4 μmol/l (0.3 mg/dl) or • A percentage increase in serum creatinine of more than or equal to 50% (1.5-fold from baseline) from Day 0-14 and/or • Urine output less than 0.5 mL/kg per hour for more than 6 hours. • 2) AKI according to the AKIN score as presented in FIG. 3a, and • 3) AKI according to the RIFLE score as presented in FIG. 3b.

[3] = tested on: patients undergoing cardiac surgery on cardiopulmonary bypass (CPB); experiment: CS007 trial: short and long term efficacy signals and safety of AP214 in patients undergoing cardiac surgery on cardiopulmonary bypass; type: in vivo, human; details: for average serum creatinine values over time: through 168 hours post surgery; for outcomes as measured by the composite endpoint (all cause death, RRT, kidney function): 90 day post-operative period, vs placebo; for population distribution of extreme serum creatinine values: highest quartile; for kidney function as measured by estimated GFR: seven day post-operative period
Text: The CS007 trial was designed to study both short and long term efficacy signals (FIG. 5).
Primary Aims • Safety: Safety and tolerability vs. placebo • Efficacy: Max post-operative change in absolute values of SCr compared to baseline within the first 7 days after surgery or until discharge from hospital, whichever comes first vs. placebo.
Secondary Aims • Composite: • Assess the proportion of patients reaching the composite endpoint of death, need for RRT or a 25% reduction in renal function over a 90 day post-operative period vs. placebo. • AKIN: Assess post-operative incidence of AKI within 48 hours post-surgery • RIFLE: Assess post-operative incidence of AKI within first 7 days post-surgery. • SCr: Changes between surgery and postoperative day 7. • GFR: Changes at day 90 compared to baseline. • eGFR: Changes between surgery and postoperative day 7
Each dosage was provided over a period of 10 minutes. As used throughout this disclosure and unless specified otherwise, “μg/kg” refers to μg AP214 per kg bodyweight of the patient being treated.
Moreover, in the same double-blind study described in this Example, patients undergoing cardiac surgery on cardiopulmonary bypass (CPB) were randomized to placebo (PBO; n=26), AP214 given at either 600 μg/kg (n=25), or 800 μg/kg (n=26), divided into 3 bolus infusions at the predetermined intervals as described above. AKI was determined according to AKIN and RIFLE scores.

[4] = 600 μg/kg bodyweight (3×200 μg/kg), i.v. over 10 min each, vs placebo
[5] = 600 μg/kg bodyweight, vs placebo

SMILES: CSCC[C@H](NC(=O)[C@H](CO)NC(=O)[C@H](Cc1ccc(O)cc1)NC(=O)[C@H](CO)NC(=O)[C@H](CCCCN)NC(=O)[C@H](CCCCN)NC(=O)[C@H](CCCCN)NC(=O)[C@H](CCCCN)NC(=O)[C@H](CCCCN)NC(=O)[C@H](CCCCN)NC(C)=O)C(=O)N[C@@H](CCC(=O)O)C(=O)N[C@@H](Cc1c[nH]cn1)C(=O)N[C@@H](Cc1ccccc1)C(=O)N[C@@H](CCCNC(=N)N)C(=O)N[C@@H](Cc1c[nH]c2ccccc12)C(=O)NCC(=O)N[C@@H](CCCCN)C(=O)N1CCC[C@H]1C(=O)N[C@H](C(N)=O)C(C)C [AP214, Acetyl-Lysyl-L-lysyl-L-lysyl-L-lysyl-L-lysyl-L-lysyl-L-seryl-L-tyrosyl-L-seryl-L-methionyl-Lglutamyl-L-histidyl-L-phenylalanyl-L-arginyl-L-tryptophanyl-glycyl-L-lysyl-L-prolyl-L-valine amide]
- adverse events relative to 100 μg/kg over 30 sec and 1 minute (subjects; 200 μg/kg over 30 seconds): more adverse events
- subjects reporting erythema (subjects; Group 2 (n=6), short infusion times): 6 subjects
- adverse events (subjects; Group 2 (n=6), short infusion times: 100 μg/kg over 1 minute, 100 μg/kg over 30 seconds, 200 μg/kg over 30 seconds, i.v.): large number of adverse events
- episodes of vomiting in one subject (subjects; Group 2, short infusion times): 8 episodes
- tolerability (subjects; fast infusion rates): not well tolerated
- adverse effects (subjects; slower infusion rate, 100 μg/kg over 10 minutes): did not show these adverse effects
- tolerability (subjects; slower infusion rates (e.g., 10 minutes)): better tolerated
- renoprotective effect [1]: provides a renoprotective effect
- prevention of AKI as compared to the placebo ([2]; 150 μg/kg bodyweight (3×50 μg/kg), same dosing scheme): showed no prevention of AKI
- patients who developed AKI (AKI as defined in the CS005 protocol) ([2]; 600 μg/kg (3×200 μg/kg), AP214 group of 12 patients, Day 0-14): 3 patients
- development of AKI according to the RIFLE score and AKIN scores ([2]; 600 μg/kg bodyweight (3×200 μg/kg)): demonstrated prevention in the development of AKI
- decrease in eGFR [2, 4]: prevented a decrease in eGFR
- increase in serum creatinine [2, 4]: prevented
- increase in carbamide [2, 5]: prevented
- increase in cystatin C [2, 5]: prevented an increase in cystatin C
- average serum creatinine values over time ([3]; 600 μg/kg (3×200 μg/kg)): decreased average serum creatinine; also recorded: decreasing average serum creatinine values over time
- outcomes as measured by the composite endpoint (all cause death, RRT, kidney function) ([3]; 600 μg/kg): reduction in outcomes with the 600 μg/kg dosage showing statistical significance; also recorded: reduction in negative outcomes
- population distribution of extreme serum creatinine values ([3]; 600 μg/kg): reduction in serum creatinine values at the highest quartile
- kidney function as measured by estimated GFR ([3]; 600 μg/kg): increased kidney function
- degrees of acute kidney injury compared to placebo ([3]; 800 μg/kg): lesser degrees of acute kidney injury
- patients scored as AKI by AKIN and RIFLE criteria ([3]; 800 μg/kg): decrease in patients scored as AKI
- average serum creatinine values over time ([3]; 800 μg/kg (1×200, 1×400, 1×200 μg/kg)): decreased average serum creatinine; also recorded: decreasing average serum creatinine values over time
- GFR change (reduction) at Day 90 compared to baseline ([3]; 800 μg/kg vs. placebo, Danish sites only): significantly lower GFR change (reduction)
- outcomes as measured by the composite endpoint (all cause death, RRT, kidney function) ([3]; 800 μg/kg): reduction in negative outcomes
- incidence of AKI compared with PBO by surgery type ([3]; 800 μg/kg, combined CABG and valve surgery, multiple valve surgery, chronic kidney disease and CABG (or valve surgery)): numerically lower incidence of AKI
- population distribution of extreme serum creatinine values ([3]; 800 μg/kg): reduction in serum creatinine values at the highest quartile
- kidney function as measured by estimated GFR ([3]; 800 μg/kg): increased kidney function
- safety and tolerability ([3]; 600 and 800 μg/kg, each dosage over 10 minutes): safe and well tolerated
